Data published in patent US20040203117A1, “Method of expressing genetically modified protein carrying sugar chain having sialic acid added thereto in insect cells” (priority 2001, published 2004).

Tests used:
[1] = tested on: N-glycosylation of recombinant boIFN-τ in TN5 cells; test: SDS-PAGE and Western blot of recombinant boIFN-τ from TN5 cells cultured with tunicamycin; format: cell-based, insect (TN5 cells); details: 1 μg/ml tunicamycin, 3 days; only the 19.5 kD molecule observed
Method: The addition of a sugar chain to a recombinant protein, that is, N-glycosylation, was inhibited by culturing the TN5 cells infected with a recombinant baculovirus in a medium containing 1 μg/ml tunicamycin (manufactured by Sigma Chemical Co.) for 3 days.
Twenty μl of the culture supernatant of TN5 cells cultured for 3 days after infection with a recombinant baculovirus was subjected as a sample to Tricine SDS-PAGE performed under reducing conditions in accordance with a method described in Schagger, H. et al., Anal. Biochem. 166, 368-379 (1987). After electrophoresis, the separated protein was stained with Coomassie brilliant blue (CBB)G-250 or blotted on a polyvinylidene difluoride (PDFV) membrane (manufactured by Millipore Corporation). The protein-transferred membrane was blocked with PBS containing 5% skim milk at 4° C. overnight and allowed to react with a 0.2 μg/ml anti-boIFN-τ monoclonal antibody (manufactured by Katakura Industries) at room temperature for one hour, and further incubated with 2000-fold-diluted HPR-rabbit anti-mouse IgG at room temperature. The antibody bound to the protein was visualized by 3,3′-diaminobenzidine staining. The densities of bands obtained after the CBB staining and Western blotting were quantified by using a densitometer.

[2] = tested on: N-acetylglucosaminidase (GlcNAcase) of TN5 cells; test: GlcNAcase inhibition assay of TN5 cells (p-nitrophenol release from p-nitrophenyl β-D-acetylglucosamide); format: biochemical, insect (TN5 cells)
Method: The GlcNAcase inhibition assay of TN5 cells was performed as follows.
TN5 cells (2.0×10^7 cells) were washed once with PBS and rinsed with 1 ml of PBS containing 1% Triton-X 100. After centrifugation at 1,000×g for 5 minutes, the supernatant was used as an enzyme source. Fifty μl of the supernatant was mixed with 50 μl of 2-ADN to make a final 2-ADN concentration of 0 to 5 mM. To the solution mixture, 200 μl of a substrate solution (1 mg/ml p-nitrophenyl β-D-acetylglucosamide in 0.2 M citrate/phosphate buffer) was added. The resultant solution was incubated at 37° C. for one hour. The reaction was quenched by adding 1 M Na2CO3, the absorption of released p-nitrophenol was measured at 420 nm. […] Lanes 1 to 6 in the figures show the results obtained at addition amounts of 2-ADN, 0, 0.05, 0.5, 1, 2 and 5 mM, respectively.

TN5 cells = details: 2-ADN added in a concentration of 5 mM
Method: TN5 cells were cultured in EX-CELL401 medium (manufactured by JRH Bioscience) containing 0 to 5 mM of 2-acetamide-1,2-dideoxynojirimycin (2-ADN) (Tront Research Chemicals Inc.) at 28° C. for 3 days. Subsequently, TN5 (TN5B1-4) cells were infected with the recombinant baculovirus prepared as described above at an moi of 1.0 and subjected to a further culturing in EX-CELL401 medium (manufactured by JRH Bioscience) at 28° C. for 3 days. Thereafter, the supernatant containing recombinant boIFN-τ (rboIFN-τ) was recovered.

[3] = tested on: α-2,6-linked sialylation of recombinant boIFN-τ in TN5 cells; test: Lectin blot analysis (HRP-SNA) of sialic acid in recombinant boIFN-τ expressed by TN5 cells; format: cell-based, insect (TN5 cells); details: 2-ADN 0, 0.05, 0.5, 1, 2 and 5 mM; total amount of protein of each lane the same
Method: After TN5 cells were infected with a recombinant baculovirus, they were cultured for 3 days. The supernatant was subjected to Tricine SDS-PAGE performed under reducing conditions (600 ng protein per lane). After the separated protein was transferred on a PVDF membrane, and blocked with PBS containing 1% BSA at 4° C. overnight, the protein was washed with 200 mM Tris-buffered saline (TBS) containing 0.05% Tween 20, and then reacted with 5 μg/ml Sambucus nigra agglutinin labeled with horseradish peroxidase (HRP-SNA, manufactured by EY laboratory) at room temperature for one hour. The carbohydrate reacted was visualized by a Renaissance Western Blot Chemiluminescence Kit (Manufactured by NEN).
To investigate whether or not a sialylated recombinant glycoprotein is produced in insect cells where the GlcNAcase activity is inhibited, the terminal structure of N-glycan of recombinant boIFN-τ was determined by a lectin blot analysis using SNA, which is a lectin capable of recognizing α-2,6-linked sialic acid.

Row | Molecule | N-glycosylation of recombinant boIFN-τ [1] | GlcNAcase activity, dependence on concentration ([2]; 0 to 5 mM 2-ADN) | GlcNAcase activity inhibited ([2]; 5 mM 2-ADN, TN5 cell lysate supernatant, 37° C., one hour) | proliferation of cells (TN5 cells) | SNA-reactive band intensity (sialic acid in recombinant boIFN-τ) [3]
1 | tunicamycin | blocked |  |  |  | 
2 | CC(=O)N[C@H]1CN[C@H](CO)[C@@H](O)[C@@H]1O [2-ADN, 2-acetoamide-1,2-dideoxynojirimycin] |  | inhibited by 2-ADN in a concentration-dependent manner | About 80% | not affected | increased by adding 2-ADN in a concentration dependent manner
